The text below walks through data of patent US11839663B2, “Radiolabelled MGL pet ligands” (Janssen Pharmaceutica NV, priority 2019, dated 2023).

Assay [1] has as its target MGL (Rattus norvegicus (Rat), UniProt Q8R431). Put plainly: In vitro autoradiography (ARG) on frozen normal rat brain sections. Conditions: sagittal rat brain section 20 um, 400 uCi/ml in 50 mM Tris-HCl pH 7.4, 30 min at room temperature. The class given is binding. The protocol: In vitro ARG using the compound of Example 3 was performed on a frozen normal rat brain sections (sagittal cut, thickness at 20 um). After taken out from freezer for 15 min, the rat brain section was added 250 ul of buffer solution (50 mM Tris-HCl pH=7.4) which contains the compound of Example 3 with the concentration of 400 uCi/ml. The brain section was incubated with the incubation buffer at room temperature for 30 min, was then washed with blank fresh buffer solution for 5 min, repeated 3 times. The brain section was air-dried, exposed to a phosphor screen in a cassette in dark environment for 18 hours. The screen was then scanned then Typhoon™ FLA 7000 Image Analyzer (GE) to generate the autoradiography of the compound of Example 3 on rat brain section (FIG. 2). […] The distribution pattern matches IHC staining pattern described below.
The IHC staining was performed on a frozen normal rat brain section (sagittal cut, thickness at 10 um) which is adjacent to the brain section used in ARG described above. After taken out from freezer for 15 min, the rat brain section was added 4% paraformaldehyde and fixed for 20 min at room temperature. The section was then washed with fresh phosphate buffer solution (PBS, 0.01 M, pH=7.4) for 5 min, repeated 3 times, followed by treatment of hydrogen peroxide solution (3% in PBS) at room temperature for 20 min. […]

The target in assay [2] is human MGL from HeLa cells (Homo sapiens (Human), UniProt Q99685). The experiment in a line: MGL in vitro activity assay ([glycerol-1,3-3H]-oleyl glycerol cleavage). The class given is biochemical. Conditions: 300 nM [Glycerol-1,3-3H]-oleyl glycerol, one hour incubation, endogenous MGL from HeLa cells. The protocol:
The assay used to measure the in vitro activity of MGL is adapted from the assay used for another serine hydrolase (FAAH) described in Wilson et al., 2003 (A high-throughput-compatible assay for determining the activity of fatty acid amide hydrolase. Wilson S J, Lovenberg T W, Barbier A J. Anal Biochem. 2003 Jul. 15; 318(2):270-5.). The assay consists of combining endogenously expressed MGL from HeLa cells with test compounds, adding [glycerol-1,3-^3H]-oleyl glycerol, incubating for one hour, and then measuring the amount of cleaved [1,3-^3H]-glycerol that passes through an activated carbon filter. The amount of cleaved, tritiated glycerol passing through the carbon filter is proportional to the activity of the MGL enzyme in a particular well/test condition.
Standard conditions for this assay combine 300 nM [Glycerol-1,3-^3H]-oleyl glycerol with human MGL from HeLa cells and test compounds for one hour, after which the reaction is filtered through activated carbon and tritium is measured in the flow through. The test compound concentration in screening mode is 10 uM, while the highest compound concentration in IC50 assays is determined empirically. MGL is the predominant hydrolase in HeLa cells/cell homogenates.

Sequence of human MGL from HeLa cells (Q99685 whole entry): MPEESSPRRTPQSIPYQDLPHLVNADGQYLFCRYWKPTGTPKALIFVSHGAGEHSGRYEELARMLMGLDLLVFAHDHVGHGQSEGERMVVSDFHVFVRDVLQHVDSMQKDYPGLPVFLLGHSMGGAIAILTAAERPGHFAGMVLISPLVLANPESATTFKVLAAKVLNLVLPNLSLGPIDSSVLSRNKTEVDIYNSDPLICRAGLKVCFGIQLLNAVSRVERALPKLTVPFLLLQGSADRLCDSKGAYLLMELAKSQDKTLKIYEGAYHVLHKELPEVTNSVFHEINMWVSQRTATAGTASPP
Sequence of MGL (Q8R431 whole entry): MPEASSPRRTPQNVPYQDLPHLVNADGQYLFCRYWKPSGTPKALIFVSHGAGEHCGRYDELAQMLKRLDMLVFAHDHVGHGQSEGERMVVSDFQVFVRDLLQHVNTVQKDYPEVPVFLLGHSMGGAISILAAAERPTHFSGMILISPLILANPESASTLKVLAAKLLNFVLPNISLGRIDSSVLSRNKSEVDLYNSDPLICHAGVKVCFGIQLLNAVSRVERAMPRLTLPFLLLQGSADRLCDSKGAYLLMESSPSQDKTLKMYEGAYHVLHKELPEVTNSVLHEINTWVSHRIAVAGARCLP

Regarding `C[C@H]1c2nn(C)c(-c3cc(F)cc(F)c3)c2CCN1C(=O)c1c([18F])cccc1Cl` [Example 3], in assay [1], the “ARG signals (regional distribution)” value is “high in hippocampus, cortex, cerebellum and thalamus regions and low in brainstem”. What is called IC50 is the concentration that inhibits the measured activity by half. Read a low IC50 as greater potency in that assay. Compound `C[C@H]1c2nn(C)c(-c3cc(F)cc(F)c3)c2CCN1C(=O)c1c(F)cccc1Cl` [Example 1, (S)-(2-Chloro-6-fluorophenyl)(3-(3,5-difluorophenyl)-2,7-dimethyl-2,4,5,7-tetrahydro-6H-pyrazolo[3,4-c]pyridin-6-yl)methanone] gave an IC50 in assay [2] of 2.3 pM.
